# Literature values in patent US20110053979A1, “PYRIDINE DERIVATIVES USED TO TREAT OREXIN RELATED DISORDERS” (priority 2008, published 2011).
# How the values were obtained:
# [1] = test system: freely-feeding rats; conditions: central administration, 4 hour time period
# [2] = test system: rats; conditions: central administration at the onset of the normal sleep period, rat
# [3] = test system: rats
# [4] = test system: rats; remark: listed apart in the source
Molecule,increase of food intake over control rats receiving vehicle [1],effect on arousal [2],effect on high-fat pellet self-administration [3],effect on hedonic eating [4]
"orexin-A: polypeptide ligand for the orexin-1 receptor; an agonist of the orexin receptors (QPLPDCCRQKTCSCRLYELLHGAGNHAAGILTL; Orexin-A; UniProt O43612 34-66, looked up)",approximately four-fold,dose-related increase in arousal,–,–
Cc1nc2ccc(NC(=O)Nc3ccnc4cccnc34)cc2o1 [SB334867],–,–,attenuated high-fat pellet self-administration,potently reduced hedonic eating
